# “Also recorded” adds a separate entry of the source.
# What was measured:
# PPARα = target: T1, PPARα (Homo sapiens, UniProt Q07869); assay: PPRE-luc reporter assay in CV-1 cells co-transfected with PPARα and RXRα expression plasmids; assay type: cell-based; conditions: luciferase reporter
# T1 construct: expressed in transfected cells; host or cells: CV-1 (monkey kidney) cells
# T1 sequence (Q07869 1-468): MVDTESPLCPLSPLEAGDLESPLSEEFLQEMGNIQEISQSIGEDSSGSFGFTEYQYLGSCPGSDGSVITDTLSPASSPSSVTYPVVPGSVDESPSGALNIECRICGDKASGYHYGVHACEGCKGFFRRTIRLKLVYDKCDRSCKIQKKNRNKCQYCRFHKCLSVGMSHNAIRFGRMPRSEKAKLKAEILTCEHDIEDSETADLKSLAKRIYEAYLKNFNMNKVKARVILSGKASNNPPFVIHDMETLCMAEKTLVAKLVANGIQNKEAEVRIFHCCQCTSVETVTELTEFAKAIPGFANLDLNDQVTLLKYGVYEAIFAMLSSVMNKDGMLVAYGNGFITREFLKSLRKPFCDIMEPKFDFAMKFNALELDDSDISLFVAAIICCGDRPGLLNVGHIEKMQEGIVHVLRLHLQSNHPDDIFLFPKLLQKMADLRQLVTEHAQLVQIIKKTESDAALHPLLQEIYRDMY
# T1 sequence (P19793 1-462 partner): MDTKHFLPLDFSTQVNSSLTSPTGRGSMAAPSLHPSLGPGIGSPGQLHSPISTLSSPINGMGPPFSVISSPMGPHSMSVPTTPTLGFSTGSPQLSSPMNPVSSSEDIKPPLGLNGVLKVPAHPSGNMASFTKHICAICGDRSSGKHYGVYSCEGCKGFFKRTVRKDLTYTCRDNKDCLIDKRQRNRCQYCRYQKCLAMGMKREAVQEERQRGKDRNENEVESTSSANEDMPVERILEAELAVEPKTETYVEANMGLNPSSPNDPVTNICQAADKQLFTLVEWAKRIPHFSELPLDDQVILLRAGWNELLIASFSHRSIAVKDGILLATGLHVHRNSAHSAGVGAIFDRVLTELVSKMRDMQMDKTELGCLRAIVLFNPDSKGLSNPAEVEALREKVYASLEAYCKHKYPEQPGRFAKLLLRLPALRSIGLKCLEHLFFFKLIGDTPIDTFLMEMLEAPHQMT
# Procedure: In brief, monkey kidney CV-1 cells were co-transfected with appropriate reporter constructs and expression vectors. The fold activation of the reporter construct by ligand was determined at several concentrations of selected compounds (FIG. 4).^20 To examine the effect of DY-compound on PPARα-mediated PPRE transcriptional activation, a PPRE-luc reporter assay was conducted using a PPRE-driven luciferase reporter-gene (PPRE-luc) plasmid and PPARα and RXRα gene expression plasmids in CV-1 cells.
# C57Bl/6J female mice = assay: Serum triglyceride and lipid effects in C57Bl/6J female mice; assay type: in vivo
# [1] = tested on: PPARα target genes in the liver; assay: Liver gene expression of PPARα targets in treated mice (RT-qPCR); assay type: in vivo
# From the text: FIG. 6. […] Data in same order as triglyceride suppression (FIG. 5). apo CIII and LPL expression inversely correlate with triglyceride suppression for many, but not all, compounds. ACOX1 and Cyp4A3 expression correlate with triglyceride suppression for many, but not all, compounds.
# The following oligonucleotide primers were used to amplify insertion sequences: for PPARα, FW-5′-[…]-3′ (SEQ ID NO:1) and Rev-5′-[…]-3′ (SEQ ID NO:2); for RXRα, FW-5′ […]-3′ (SEQ ID NO:3) and Rev-5′-[…]-3′ (SEQ ID NO:4). It has been well established that PPARα agonists fibrates reduce plasma triglycerides largely by inducing hepatic PPARα-mediated transcription of key proteins in hepatic long-chain fatty acid […], such as CPT1 (carnitine palmitoyltransferase-1). DY121 promoted the expression of PPARα, CPT1, and LPL involved in free fatty acid β-oxidation. The mRNA expressions of the PPARα-regulated genes CPT-Ia and ACADM were measured by real-time quantitative-PCR (RT-qPCR). […] A structural specificity of DY121 may be responsible for this regulation. PPARα is predominantly expressed in liver. PPARα modulates fatty acid catabolism in the liver. We next measured the mRNA expression of PPARα target genes in the liver. PPARα agonists exert their actions and attributed to the activation of PPARα which in turn effects an increase in LPL (lipoprotein lipase) gene expression and transrepression of apoC-III (apolipoprotein C-III). Activation of PPARα by its modulators can increase PPARα levels and activate PPARα pathways, leading to increased fatty-acid oxidation and reduction of oxidative stress. DY121 and its analogs induced the expression of PPARα-regulated genes involved in lipid, glucose, and cholesterol metabolism, such as ACOX1 (acyl-CoA oxidase) and Cyp4A3 (cytochrome P450 gene subfamily). Members of the CYP4A gene subfamily catalyze the oxygenation of biologically important fatty acids.
# Next, we would like to investigate the therapeutic potential of DY121 to see if it could be candidate for treating NAFLD/NASH. Note that the pathogenesis of NASH has not yet been fully elucidated so far; however, the ‘two-hit’ theory is widely accepted. The first hit is the accumulation of fatty acids in the liver to cause steatosis. […] The newly produced PPARα agonist DY121 and its analogs, as well as WY100=WY14643 and GW3 (GW7647), were evaluated in C57Bl/6J female mice for their ability to alter serum triglyceride, liver gene expression, and glucose. Fibric acid derivatives (100 mg/kg/day) was used as a control, WY100 (WY14, 643, 100 mg/kg/day), GW3 (GW7647-positive control, 3 mg/kg/day), DY121 (˜3 mg/kg/day), respectively. […]
smiles,measurement,setting,value
"COc1ccc(Cn2c(CCCc3ccc(OC(C)(C)C(=O)O)cc3)nn(Cc3ccc(C)cc3)c2=O)cc1 [10a, 2-(4-{3-[4-(4-Methoxy-benzyl)-1-(4-methyl-benzyl)-5-oxo-4,5-dihydro-1H[1,2,4]triazol-3-yl]-propyl}-phenoxy)-2-methyl-propionic acid]",PPARα activation / PPRE-luc activity,PPARα,highest PPARα activation
same,"triglycerides, time course","C57Bl/6J female mice; 24 h vs 72 h, wild type and PPARα-knockout mice (FIG. 8)",maintained over 72 h in wild type but not PPARα-knockout mice
same,"triglycerides, chronic treatment",C57Bl/6J female mice; 7 day period (FIG. 10),suppressed triglycerides over the entire 7 day period
same,dose-response of triglyceride suppression,"C57Bl/6J female mice; FIG. 7, listed as DY121",Dose-response suppression; also recorded: dose-dependent anti-dyslipidemic effects
same,FFA and glycerol time course,C57Bl/6J female mice; FIG. 14 and 15,early increase (lipolytic burst) followed by decline
same,"expression of PPARα, CPT1, and LPL",[1]; RT-qPCR,promoted
same,expression of PPARα-regulated genes such as ACOX1 and Cyp4A3,[1]; RT-qPCR,induced
same,liver CPT-Ia expression,[1]; chronic (>3 d) treatment (FIG. 17),upregulated
same,LPL expression,"[1]; liver, chronic treatment (FIG. 11)",enhanced expression of LPL
same,ACOX1 expression,"[1]; liver, chronic treatment (FIG. 12)","enhanced by PPARα activation, most consistently"
same,Cyp4A3 expression,"[1]; liver, chronic treatment (FIG. 13)",consistently
same,apoCIII expression,"[1]; liver, chronic treatment up to 7 days (FIG. 11)",significantly suppressed expression of apoCIII at each time point
same,ACADM expression,[1]; time course (FIG. 18),upregulates
same,CYP4A3 mRNA in the liver,[1]; wild-type and PPARα knockout mice,enhanced levels of CYP4A3 mRNA in the liver of wild-type but not PPARα knockout mice

# From patent US20190077774A1, “PEROXISOME PROLIFERATOR-ACTIVATED RECEPTOR AGONISTS” (City of Hope, priority 2017, published 2019)
